Test results published in PubChem BioAssay (NCI).
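All cell lines were grown in 96-well plates and treated with compound for 48 hours. TGI marks complete inhibition of growth.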

Columns and labels:
Assay in all cases: NCI-60 cell line screen, 48 h
HCT-116 colon = tested on: HCT-116 colon
NCI-H23 lung = tested on: NCI-H23 lung
SF-268 CNS = tested on: SF-268 CNS
EKVX NSCLC = tested on: EKVX NSCLC
HL-60(TB) leukemia = tested on: HL-60(TB) leukemia
DLD-1 colon = tested on: DLD-1 colon
SK-MEL-2 melanoma = tested on: SK-MEL-2 melanoma
M14 melanoma = tested on: M14 melanoma
HCC-2998 colon = tested on: HCC-2998 colon
SNB-75 CNS = tested on: SNB-75 CNS
MOLT-4 leukemia = tested on: MOLT-4 leukemia
A498 renal = tested on: A498 renal
MALME-3M melanoma = tested on: MALME-3M melanoma
HCT-15 colon = tested on: HCT-15 colon
RPMI-8226 leukemia = tested on: RPMI-8226 leukemia
SK-OV-3 ovarian = tested on: SK-OV-3 ovarian
SF-539 CNS = tested on: SF-539 CNS
SK-MEL-28 melanoma = tested on: SK-MEL-28 melanoma
SN12C renal = tested on: SN12C renal
TK-10 renal = tested on: TK-10 renal
HT29 colon = tested on: HT29 colon
HOP-62 NSCLC = tested on: HOP-62 NSCLC
ACHN renal = tested on: ACHN renal
SNB-78 CNS = tested on: SNB-78 CNS
DMS 114 small cell lung = tested on: DMS 114 small cell lung
SF-295 CNS = tested on: SF-295 CNS
OVCAR-3 ovarian = tested on: OVCAR-3 ovarian
NCI-H522 lung = tested on: NCI-H522 lung
CAKI-1 renal = tested on: CAKI-1 renal
CCRF-CEM leukemia = tested on: CCRF-CEM leukemia
SNB-19 CNS = tested on: SNB-19 CNS
UO-31 renal = tested on: UO-31 renal
RXF-631 renal = tested on: RXF-631 renal
SK-MEL-5 melanoma = tested on: SK-MEL-5 melanoma
HOP-18 NSCLC = tested on: HOP-18 NSCLC
COLO 205 colon = tested on: COLO 205 colon
SW-620 colon = tested on: SW-620 colon
OVCAR-4 ovarian = tested on: OVCAR-4 ovarian
SR leukemia = tested on: SR leukemia
UACC-257 melanoma = tested on: UACC-257 melanoma
786-0 renal = tested on: 786-0 renal
OVCAR-8 ovarian = tested on: OVCAR-8 ovarian
M19-MEL melanoma = tested on: M19-MEL melanoma
NCI-H460 lung = tested on: NCI-H460 lung
HOP-92 NSCLC = tested on: HOP-92 NSCLC
OVCAR-5 ovarian = tested on: OVCAR-5 ovarian
NCI-H226 lung = tested on: NCI-H226 lung
U251 CNS = tested on: U251 CNS
UACC-62 melanoma = tested on: UACC-62 melanoma
K-562 leukemia = tested on: K-562 leukemia
KM12 colon = tested on: KM12 colon
IGROV1 ovarian = tested on: IGROV1 ovarian
DMS 273 small cell lung = tested on: DMS 273 small cell lung
KM20L2 colon = tested on: KM20L2 colon
RXF 393 renal = tested on: RXF 393 renal
LOX IMVI melanoma = tested on: LOX IMVI melanoma
LXFL 529 NSCLC = tested on: LXFL 529 NSCLC
XF 498 CNS = tested on: XF 498 CNS
A549 NSCLC = tested on: A549 NSCLC

Measured: TGI

Cn1c(=O)c2c(nc3n2C(CCl)CO3)n(C)c1=O (centres undefined)
not listed: KM20L2 colon | RXF 393 renal | LOX IMVI melanoma | LXFL 529 NSCLC | XF 498 CNS | A549 NSCLC
> 100 µM: all other assays above

COC(=O)C1(c2ccc(OC)cc2)NC(c2ccccc2)C2C(=O)N(c3ccc(OC)cc3)C(=O)C21 (centres undefined)
not listed: HCT-116 colon | HOP-62 NSCLC | OVCAR-3 ovarian | HOP-18 NSCLC | SR leukemia | M19-MEL melanoma | HOP-92 NSCLC | NCI-H226 lung
> 100 µM: all other assays above
